Data set [1] deals with in vitro fermentation. To be noted: doses of 0.25, 1 and 1.5% of feed dry matter; cited from earlier work.
Data set [2] relates to rumen fluid. To be noted: formulated in DMSO, cited from earlier work.
The conditions of data set [3]: at 20 degrees; cited from earlier work.
The nature of data set [4]: Bromoform in water. The data set is classed as physicochemical. Particulars: deionised water. On the procedure:
Manufactured synthetic CHBr3, 98% purity, and stabilized with 2-methyl-2-butene (Sigma-Aldrich, product no: 241032) was used for the preparation of the four excipients. The Corn Oil, Molasses and Water were made with similar protocols as per the Canola Oil in Example 4. Briefly, CHBr3 was dissolved and homogenised into either retail corn oil, molasses, or deionised water and homogenised by repeated inversion and left to stabilise overnight prior to achieve a concentration of 3.0±0.10 mg/g. Cyclodextrin was prepared as described previously (patent WO 96/14062, PCT AU95/00733). Briefly, CHBr3 was added to α-cyclodextrin (Sigma-Aldrich, product no: 779008) aqueous solution and mixed overnight. The solid was then separated, washed, then dried. The CHBr3 concentration of the dried powder was determined and then diluted with additional α-cyclodextrin to adjust the CHBr3 concentration to 3.0±0.10 mg/g. TGP, CH4, H2 and CO2 production, IVDDM, and VFA were determined using the protocol as described in Example 4.

Where two headings read alike, the source gives them in different places.

`BrC(Br)Br` [bromoform, tribromomethane]: the methane production entry in data set [1] is recorded as “no effect”. The “methane production in in vitro fermentation” value in data set [2] (1 μM) is “does not significantly inhibit”; in data set [2] (doses of 5 μM, 10 μM and 25 μM), “significantly inhibits”. The solubility in water result in data set [3] is given as “less than 0.1 g bromofrm per 100 g water”. The “concentration of bromoform prepared in water” value in data set [4] is listed as 3.0±0.10 mg bromoform per gram deionised water.

These data come from US20250170072A1, “NOVEL COMPOSITIONS FOR REDUCING METHANE PRODUCTION IN RUMINANT ANIMALS” (FUTUREFEED PTY LTD, priority 2022, published 2025).
